In PubChem BioAssay (NCI):
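Dose response: 5 concentrations. Exposure: 48 h. Format: 96-well plates. Endpoint: linear interpolation; highest concentration if not reached. TGI: total growth inhibition.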

Tests used:
[1] = test system: DMS 114 small cell lung; experiment: inhibition of tumour cell growth, NCI panel, 48 h
[2] = test system: M19-MEL melanoma; experiment: inhibition of tumour cell growth, NCI panel, 48 h

Question: What does the source list for `O=C1C(Cl)N(c2cccc([N+](=O)[O-])c2)C1c1c[nH]c2ccccc12` (configuration not stated)?
Answer: TGI [1]: 47 µM; TGI [2]: 42.5 µM
